Laboratory results: patent US9353107B2 (Aurigene Discovery Technologies Limited, priority 2012, dated 2016)
Where a name gives a salt, the structure may show the parent alone.

Biological target: T1, recombinant human ALK enzyme (ALK WT) (Homo sapiens, UniProt Q9UM73)
T1 construct: purchased Carna Biosciences 08-518
Experiment: ALK WT cell free enzymatic assay (TR-FRET)
Format: biochemical
Details: 1 μM ATP; for IC50: 10 point dose response; for inhibition at 0.1 µM: compound at 100 nM; for inhibition at 0.1 µM / inhibition at 1 µM: 30 min pre-incubation; for inhibition at 1 µM: compound at 1 μM
Method: ALK Wild Type (WT) The ALK WT cell free assay was set up to evaluate the effects of these compounds as inhibitors of ALK enzyme. The enzymatic assay was standardized using recombinant human ALK enzyme (Cat#08-518) from Carna Biosciences using Ultra Light Poly GT (Cat# TRF 0100D) from Perkin Elmer as a substrate. TR-FRET (Time resolved fluorescence resonance energy transfer) detection technology was used for the read out. The final assay conditions were 50 mM HEPES pH 7.1, 10 mM MgCl2, 2 mM MnCl2, 0.01% BSA, 2.5 mM DTT, 0.1 mM Na3 VO4, 40 nM Ultra Light Poly GT, 2.5 ng ALK WT enzyme, 1 μM ATP and 125 nM Lance Eu-W1024 labeled anti phospho tyrosine antibody (Cat# AD0203, Perkin Elmer) in 384 well format. The assay reaction time with the substrate was 30 minutes after which the antibody detection mix is added. The TR-FRET signal (Excitation at 340 nm, Emission at 615 nm and 665 nm) was read with 50 μs delay time on Victor^3 V fluorimeter. The data is calculated using the ratio of reading at 665 nM to 615 nM. The final concentration of DMSO was 1% in the assay. Compounds were screened at 100 nM and 1 μM concentrations with pre-incubation of the enzymes with compound for 30 minutes. Each individual IC50 was determined using 10 point dose response curve generated by GraphPad Prism software Version 4 (San Diego, Calif., USA) using non linear regression curve fit for sigmoidal dose response (variable slope). Percentage inhibition at concentrations of 100 nM and 1.0 μM are given in table along with the IC50 (nM) details for selected examples.

T1 sequence (Q9UM73 1058-1620 limits assumed): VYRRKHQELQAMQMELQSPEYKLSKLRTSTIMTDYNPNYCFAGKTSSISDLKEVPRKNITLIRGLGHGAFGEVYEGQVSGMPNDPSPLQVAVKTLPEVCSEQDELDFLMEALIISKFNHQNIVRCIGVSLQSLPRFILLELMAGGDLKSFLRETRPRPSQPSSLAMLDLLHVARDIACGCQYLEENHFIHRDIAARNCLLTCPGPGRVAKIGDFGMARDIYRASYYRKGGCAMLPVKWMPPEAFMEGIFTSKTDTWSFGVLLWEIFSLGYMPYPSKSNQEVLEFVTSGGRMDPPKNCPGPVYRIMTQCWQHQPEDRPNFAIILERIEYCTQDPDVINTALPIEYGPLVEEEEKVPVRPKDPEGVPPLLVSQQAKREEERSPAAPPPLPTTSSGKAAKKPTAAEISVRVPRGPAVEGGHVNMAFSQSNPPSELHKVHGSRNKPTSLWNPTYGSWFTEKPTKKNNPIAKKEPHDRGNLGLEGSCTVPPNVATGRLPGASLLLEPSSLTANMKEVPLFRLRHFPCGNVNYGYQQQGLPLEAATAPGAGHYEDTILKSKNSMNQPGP

Row | SMILES | IC50 [nM] | inhibition at 0.1 µM [%] | inhibition at 1 µM [%]
1 | Cc1nn(Cc2cccc(F)c2)c(C)c1-c1c[nH]c2ncc(-c3ccc(N4CCOCC4)cc3)cc12 [Example 45, 4-(4-(3-(1-(3-fluorobenzyl)-3,5-dimethyl-1H-pyrazol-4-yl)-1H-pyrrolo[2,3-b]pyridin-5-yl)phenyl) morpholine] | 50 to 250 | 51 | 80
2 | COc1cccc(Cn2nc(C)c(-c3c[nH]c4ncc(-c5ccc(N6CCNCC6)cc5)cc34)c2C)c1 [Example 46, 3-(1-(3-methoxybenzyl)-3,5-dimethyl-1H-pyrazol-4-yl)-5-(4-(piperazin-1-yl)phenyl)-1H-pyrrolo[2,3-b]pyridine hydrochloride] | < 50 | 80 | 98
3 | Cc1nn(Cc2cccc(Cl)c2)c(C)c1-c1c[nH]c2ncc(-c3ccc(N4CCNCC4)cc3)cc12 [Example 47, 3-(1-(3-chlorobenzyl)-3,5-dimethyl-1H-pyrazol-4-yl)-5-(4-(piperazin-1-yl)phenyl)-1H-pyrrolo[2,3-b]pyridine hydrochloride] | < 50 | 90 | 100
4 | Cc1nn(Cc2cccc(C#N)c2)c(C)c1-c1c[nH]c2ncc(-c3ccc(N4CCNCC4)cc3)cc12 [Example 48, 3-((3,5-dimethyl-4-(5-(4-(piperazin-1-yl)phenyl)-1H-pyrrolo[2,3-b]pyridin-3-yl)-1H-pyrazol-1-yl)methyl)benzonitrile hydrochloride] | 50 to 250 | 52 | 83
5 | CC(=O)N1CCN(c2ccc(-c3cnc4[nH]cc(-c5c(C)nn(Cc6cccc(F)c6)c5C)c4c3)cc2)CC1 [Example 49, 1-(4-(4-(3-(1-(3-fluorobenzyl)-3,5-dimethyl-1H-pyrazol-4-yl)-1H-pyrrolo[2,3-b]pyridin-5-yl)phenyl)piperazin-1-yl)ethanone] | < 50 | 70 | 91
6 | CC(=O)Nc1cccc(Cn2nc(C)c(-c3c[nH]c4ncc(-c5ccc(N6CCNCC6)cc5)cc34)c2C)c1 [Example 50, N-(3-((3,5-dimethyl-4-(5-(4-(piperazin-1-yl)phenyl)-1H-pyrrolo[2,3-b]pyridin-3-yl)-1H-pyrazol-1-yl)methyl)phenyl)acetamide] | < 50 | 60 | 89
7 | Cc1cccc(Cn2nc(C)c(-c3c[nH]c4ncc(-c5ccc(N6CCNCC6)cc5)cc34)c2C)c1 [Example 51, 3-(3,5-dimethyl-1-(3-methylbenzyl)-1H-pyrazol-4-yl)-5-(4-(piperazin-1-yl)phenyl)-1H-pyrrolo[2,3-b]pyridine hydrochloride] | < 50 | 84 | 100
8 | Cc1nn(Cc2cccc(OC(F)(F)F)c2)c(C)c1-c1c[nH]c2ncc(-c3ccc(N4CCNCC4)cc3)cc12 [Example 52, 3-(3,5-dimethyl-1-(3-(trifluoromethoxy)benzyl)-1H-pyrazol-4-yl)-5-(4-(piperazin-1-yl)phenyl)-1H-pyrrolo[2,3-b]pyridine hydrochloride] | > 250 | 12 | 80
9 | CCOc1cccc(Cn2nc(C)c(-c3c[nH]c4ncc(-c5ccc(N6CCNCC6)cc5)cc34)c2C)c1 [Example 54, 3-(1-(3-ethoxybenzyl)-3,5-dimethyl-1H-pyrazol-4-yl)-5-(4-(piperazin-1-yl)phenyl)-1H-pyrrolo[2,3-b]pyridine hydrochloride] |  | 0 | 25
10 | Cc1nn(Cc2cccc(F)c2)c(C)c1-c1c[nH]c2nc(C3CC3)c(-c3ccc(N4CCNCC4)cc3)cc12 [Example 55, 6-cyclopropyl-3-(1-(3-fluorobenzyl)-3,5-dimethyl-1H-pyrazol-4-yl)-5-(4-(piperazin-1-yl)phenyl)-1H-pyrrolo[2,3-b]pyridine hydrochloride] |  | 2 | 43
